Values quoted from earlier work, collected in patent US8257742B2, “Bisphosphonates for treating endometriosis” (Yissum Research Development Company of the Hebrew …, priority 2005, dated 2012).

Test system: endometriosis explants
Conditions: in vivo

C=CCn1c(=O)n([C@@H]2O[C@H](CO)[C@@H](O)[C@H]2O)c2nc(N)[nH]c(=O)c21 [loxoribine, Loxoribine]
regression of endometriosis explants: Regression of endometriosis explants was observed
